Data from the supplement of paper PMC10307832.

Assays:
Assay in all cases: relative viability (nuclei count vs DMSO), 5 days (fraction); higher = more cells survive
[1] = compound: CC1=C(C(=O)N2C=CSC2=N1)CCN3CCC(=C(C4=CC=CC=C4)C5=CC=C(C=C5)F)CC3 + O=C(CCCCCCC(=O)Nc1ccccc1)NO [Vorinostat] (partner 1 µM)
How it was run: (§1)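 One day after seeding in 1536-well plates, lung cancer cell lines were dosed by pin tool. Dosing was either single-drug or a fixed anchor-drug dose plus five library-drug doses (not always all listed) in √10 steps. After 5 days, nuclei were stained in one fix-and-stain step and counted on 4× images, and relative viability is the nuclei count of treated wells over that of vehicle wells, given as the median of duplicate plates.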

[2] = compound: CC1=C(C(=O)N2C=CSC2=N1)CCN3CCC(=C(C4=CC=CC=C4)C5=CC=C(C=C5)F)CC3 + CS(=O)(=O)N1CCN(Cc2cc3nc(-c4cccc5[nH]ncc45)nc(N4CCOCC4)c3s2)CC1 [Pictilisib] (partner 1 µM)
How it was run: as §1

[3] = compound: CC1=C(C(=O)N2C=CSC2=N1)CCN3CCC(=C(C4=CC=CC=C4)C5=CC=C(C=C5)F)CC3 + C[C@@H](Oc1cc(-c2cnn(C3CCNCC3)c2)cnc1N)c1c(Cl)ccc(F)c1Cl [Crizotinib] (partner 1 µM)
How it was run: as §1

[4] = compound: CC1=C(C(=O)N2C=CSC2=N1)CCN3CCC(=C(C4=CC=CC=C4)C5=CC=C(C=C5)F)CC3 + Cc1nc(Nc2ncc(C(=O)Nc3c(C)cccc3Cl)s2)cc(N2CCN(CCO)CC2)n1 [Dasatinib] (partner 0.075 µM)
How it was run: as §1

Cell Line	relative viability ([1]; first compound 0.08 µM)	relative viability ([1]; first compound 0.253 µM)	relative viability ([1]; first compound 0.8 µM)	relative viability ([1]; first compound 2.53 µM)	relative viability ([1]; first compound 8 µM)	relative viability ([2]; first compound 0.08 µM)	relative viability ([2]; first compound 0.253 µM)	relative viability ([2]; first compound 0.8 µM)	relative viability ([2]; first compound 2.53 µM)	relative viability ([2]; first compound 8 µM)	relative viability ([3]; first compound 0.08 µM)	relative viability ([3]; first compound 0.253 µM)	relative viability ([3]; first compound 0.8 µM)	relative viability ([3]; first compound 2.53 µM)	relative viability ([3]; first compound 8 µM)	relative viability ([4]; first compound 0.08 µM)	relative viability ([4]; first compound 0.253 µM)	relative viability ([4]; first compound 0.8 µM)	relative viability ([4]; first compound 2.53 µM)	relative viability ([4]; first compound 8 µM)
201T	1.07	0.93	1.02	1.01	0.595	0.647	0.779	0.632	0.712	0.808	1.02	1.03	1.01	1.05	1.08	0.614	0.628	0.541	0.713	0.569
A549						0.643	0.434	0.467	0.567	0.422	0.855	0.777	0.665	0.64	0.579					
A-427	0.878	0.824	0.86	0.91	0.748	0.801	0.86	0.676	0.83	0.737	0.749	0.95	0.942	0.963	0.646	0.788	0.585	0.715	0.696	0.457
ABC-1	1.14		0.938	0.949	0.784	0.817	0.973	0.827	0.684	0.483	1.13	1.42	0.931	0.722	0.748	0.622	0.606	0.455	0.512	0.467
BEN	0.548	0.589	0.523	0.682	0.495	0.521	0.602	0.562	0.516	0.505	0.725	0.818	0.963	0.963	0.69	0.318	0.319	0.294	0.362	0.284
CAL-12T	0.566	0.728	0.727	0.957	0.513		0.445	0.411	0.42	0.387	0.694	0.829	0.657	0.741	0.46	0.319	0.268	0.373	0.527	0.279
COR-L23	0.438	0.365	0.46	0.421	0.405	0.775	0.595	0.945	0.69	0.52	0.503	0.758	0.608	0.649	0.419	0.383	0.341	0.457	0.59	0.403
COR-L 105	0.58	0.738	0.882	1.29	0.607	0.349	0.392	0.376	0.436	0.403	0.676	0.809	0.641	0.836	0.786	0.416	0.32	0.241	0.372	0.294
ChaGo-K-1	0.616	0.76	0.809	0.757	0.597	0.976	0.593	0.476	0.937	0.604	1.17	1.32	1.29	0.706	1.03	0.598	0.635	0.59	0.639	0.547
EKVX	0.577	0.723	0.651	0.63	0.561	0.38	0.412	0.479	0.408	0.36	0.863	1.15	1.01	0.894	0.703	0.359	0.631	0.519	0.434	0.549
EMC-BAC-2	0.416		0.343	0.398	0.377	0.543	0.516	0.505	0.617	0.424	0.725	0.801	0.696	0.766	0.676	0.287	0.329	0.277	0.328	0.298
EPLC-272H	0.41		0.444	0.505	0.474		0.332	0.259	0.306	0.359		1.12	0.934	1.07	0.738	0.364	0.331	0.378	0.305	0.22
H3255	0.821	0.922	0.841	0.836	0.666	0.448	0.389	0.515	0.537	0.4	0.776	0.967	0.798	0.916	0.752	0.349	0.357	0.307	0.339	0.375
HARA	0.477	0.545	0.513	0.665	0.372	0.527	0.423	0.383	0.202	0.289	1	1.21	1.25	1.04	0.791	0.243	0.23	0.265	0.229	0.136
HCC-15	0.927	0.96	0.869	0.788	0.606	0.714	0.752	0.714	0.773	0.587	0.804	0.88	0.933	0.795	0.576	0.638	0.561	0.643	0.678	0.586
HCC-44	1.19	1.19	1.09	1.24	0.93	0.532	0.643	0.587	0.573	0.581	0.836	0.842	0.927	0.858	0.665					
HCC-78	0.385	0.458	0.546	0.424	0.476	0.216	0.206	0.226	0.212	0.273	0.283	0.335	0.34	0.319	0.326	0.344	0.356	0.373	0.344	0.248
